# Measurements: patent publication US9624269B2, “Peptide inhibitors of BACE1” (GENENTECH, INC., priority 2011, dated 2017)
# Positions of bridges follow the written chain, without caps; N, C: chain ends. Residues, ends and D or L forms follow the SMILES beside them.
# Assays:
# human BACE1 (rhBACE1) [1] = target: T1, human BACE1 (rhBACE1) (Homo sapiens, UniProt P56817); experiment: Caliper BACE1 activity assay (microfluidic capillary electrophoresis); format: biochemical; design: containing human BACE1 (extracellular domain); details: 12 nM rhBACE1, 1 μM FAM-substrate, pH 4.4
# Procedure: An MCE assay reactions can be carried out in a standard enzymatic reaction, initiated by the addition of substrate to enzyme and 4× compound, containing human BACE1 (extracellular domain), amyloid precursor protein beta secretase active site peptide (FAM-[…]-CONH2 (SEQ ID NO: 20)), 50 mM NaOAc pH 4.4 and 0.1% CHAPS. After incubation for 60 minutes at ambient temperature, the product and substrate in each reaction is separated using a 12-sipper microfluidic chip analyzed on an LC3000® (both, Caliper Life Sciences). The separation of product and substrate is optimized by choosing voltages and pressure using the manufacturer's optimization software. Substrate conversion is calculated from the electrophoregram using HTS Well Analyzer software (Caliper Life Sciences).
# BACE1, BACE2 and Cathepsin D Activity Assay Using Microfluidic Capillary Electrophoresis (MCE).
# BACE1, BACE2, and Cathepsin D reactions were carried out in a final volume of 20 μl per well in a 384-well microplate using a Caliper LabChip 3000 (Hopkinton, Mass.). A standard enzymatic reaction, initiated by the addition of 10 μ12× substrate to 5 μl of 4× enzyme and 5 μl of 4× peptide or small molecule inhibitor, contained 12 nM rhBACE1, 1 μM FAM-[…]-amide (SEQ ID NO: 20), 50 mM NaOAc, pH 4.4, 0.1% CHAPS. The same reaction conditions were used for rhBACE2 (5 nM) and Cathepsin D (6 nM) (Cat. No. 219394; EMD Biosciences, San Diego, Calif.). After incubation for 60 min at room temperature, the product and substrate in each reaction were separated using a 12-sipper microfluidic chip. Separation of product and substrate was optimized by choosing voltages and pressure using the Caliper Optimizer software. The separation buffer contained 100 mM HEPES, pH 7.2, 0.015% Brij-35, 0.1% Coating Reagent #3, 10 mM EDTA and 5% DMSO. The separation conditions used a downstream voltage of −500 V, an upstream voltage of −2250 V, and a screening pressure of −1.2 psi. The product and substrate fluorescence was excited at 488 nm and detected at 530 nm. Substrate conversion was calculated from the electrophoregram using the Caliper HTS Well Analyzer software.
# Target sequence in this assay (P56817 46-457 limits assumed): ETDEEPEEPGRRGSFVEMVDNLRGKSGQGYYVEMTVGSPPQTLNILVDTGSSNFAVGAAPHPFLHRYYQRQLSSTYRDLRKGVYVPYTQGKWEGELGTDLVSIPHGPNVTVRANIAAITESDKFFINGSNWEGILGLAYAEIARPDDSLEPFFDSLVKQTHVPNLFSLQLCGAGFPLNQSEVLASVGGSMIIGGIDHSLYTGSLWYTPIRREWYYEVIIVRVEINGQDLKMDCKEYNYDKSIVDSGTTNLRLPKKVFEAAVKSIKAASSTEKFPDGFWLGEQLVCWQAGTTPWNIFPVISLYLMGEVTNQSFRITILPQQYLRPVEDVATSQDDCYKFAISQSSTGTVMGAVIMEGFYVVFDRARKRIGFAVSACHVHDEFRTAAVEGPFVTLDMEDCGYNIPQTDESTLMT
# human BACE1 (rhBACE1) [2] = target: T1, human BACE1 (rhBACE1); experiment: BACE1 fluorescence polarization (FP) competition binding assay with 5-TAMRA-BACE020 probe; details: competition with 3 nM 5-TAMRA-BACE020, 12 nM rhBACE1, pH 4.4
# Procedure: BACE1 Fluorescence Polarization Competition Binding Assay.
# BACE1 binding assays were carried out in a final volume of 10 μL per well in black 384-well microplates (Proxiplate-Plus; Perkin Elmer, Waltham, Mass.). A standard binding reaction, initiated by the addition of 5 μL 2× enzyme to 2.5 μL of 4× binding probe and […] of 4× inhibitor, contained 12 nM rhBACE1, 3 nM 5-TAMRA-[…] (SEQ ID NO: 16) (5-TAMRA-BACE020), 50 mM NaOAc, pH 4.4 with 0.1% CHAPS. The reaction was permitted to proceed towards equilibrium for 2 h at ambient temperature prior to fluorescence polarization measurement using Envision (Perkin Elmer). The parallel and perpendicular fluorescent emissions measured in each well at 595 nm (excitation 531 nm polarized light) were used to determine the milli-polarization level (mP) using the following formula: mP=1000*(S-G*P)/(S+G*P) where S=parallel emission, P=perpendicular emission and G=0.65. The mP value in each well was plotted as a function of inhibitor concentration and the 50% inhibition (IC50) values were determined using a nonlinear least squares fit of the data to a four parameter equation using Prism 5.0 software (GraphPad Software, San Diego, Calif.). 5-TAMRA-labeled BACE020 was purchased from American Peptide Company, Inc (Sunnyvale, Calif.) and solubilized in DMSO to 100 mM for storage.
# The affinities of BACE1 peptide ligands were measured using the abovementioned competition binding FP assay for determining IC50 values with serially diluted peptides. A Caliper assay was used to measure the inhibition of BACE1 enzymatic activity by peptide ligands. […] Furthermore, the IC50 values measured by the Caliper assay for peptides BACE017-021 and BACE025-028 are consistent with those measured by the HTRF assay.
# Target sequence in this assay (P56817 46-501): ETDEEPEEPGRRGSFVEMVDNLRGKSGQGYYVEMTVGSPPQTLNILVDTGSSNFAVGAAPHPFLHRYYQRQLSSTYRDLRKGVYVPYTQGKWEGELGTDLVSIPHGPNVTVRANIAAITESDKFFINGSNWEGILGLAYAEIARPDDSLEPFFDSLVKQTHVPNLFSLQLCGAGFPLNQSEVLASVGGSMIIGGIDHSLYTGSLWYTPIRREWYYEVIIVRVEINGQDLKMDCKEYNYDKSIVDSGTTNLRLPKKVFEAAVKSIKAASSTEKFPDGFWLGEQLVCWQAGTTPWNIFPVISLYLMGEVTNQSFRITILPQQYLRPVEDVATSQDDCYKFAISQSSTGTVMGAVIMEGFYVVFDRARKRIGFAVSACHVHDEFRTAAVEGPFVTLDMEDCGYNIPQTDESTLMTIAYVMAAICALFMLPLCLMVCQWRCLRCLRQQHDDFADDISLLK
# human BACE1 (rhBACE1) [3] = target: T1, human BACE1 (rhBACE1); experiment: BACE1 HTRF activity assay (Bi27 substrate); format: biochemical; details: for IC50: Bi27 27-mer substrate, pH 4.4
# Procedure: Briefly, a homogeneous time-resolved fluorescence (HTRF) assay can be used to measure BACE1 aspartyl protease activity with the use of an amyloid precursor protein BACE1 cleavage site peptide. For example, the Bi27 peptide (Biotin-[…] (SEQ ID NO:5), American Peptide Company)), is combined with BACE1 pre-incubated with an anti-BACE antibody in BACE reaction buffer (50 mM sodium acetate pH 4.4 and 0.1% CHAPS) in a 384-well plate (Proxiplate™, Perkin-Elmer). The proteolytic reaction mixture is incubated at ambient temperature for 75 minutes and is quenched by the addition of 5 μL HTRF detection mixture containing 2 nM Streptavidin-D2 and 150 nM of an anti-amyloid beta antibody labeled with Europium cryptate in detection buffer (200 mM Tris pH 8.0, 20 mM EDTA, 0.1% BSA, and 0.8M KF). The final reaction mixture is incubated at ambient temperature for 60 minutes and the TR-FRET signal is measured using an EnVision Multilabel Plate Reader™ (Perkin-Elmer) at an excitation wavelength of 320 nm and emission wavelengths of 615 and 665 nm.
# BACE1 HTRF Activity Assay.
# The BACE1 HTRF reaction was initiated by the addition of 2 μl of 600 nM Bi27 (Biotin-[…] (SEQ ID NO: 5), American Peptide Company) to 6 μl of 2.7 nM rhBACE1 pre-incubated with peptides or small molecule inhibitors in BACE1 reaction buffer (50 mM NaOAc pH 4.4 and 0.1% CHAPS) in a 384-well Proxiplate (Perkin Elmer). The 8 μl proteolytic reaction mixture was incubated at ambient temperature for 24 h and was quenched by the addition of 8 μl HTRF detection mixture containing 150 nM Streptavidin-D2 and 5 nM 6E10 labeled with Europium cryptate in detection buffer (200 mM Tris pH 8.0, 20 mM EDTA, 0.1% BSA, and 0.8 M KF). The final reaction mixture was incubated at room temperature for 60 min and the TR-FRET signal was measured on the EnVision Multilabel Plate Reader (Perkin Elmer) (excitation at 320 nm, emission at 615 and 665 nm). The data was analyzed using GraphPad Prism 5 (La Jolla, Calif.).
# Target sequence in this assay (P56817 46-501): as above
# [4] = system: Aβ1-40 production in 293-hAPP cells; experiment: Aβ1-40 assay in 293-hAPP cells; format: cell-based, human; details: 293-HEK cells stably transfected with APP, 24 h
# Procedure: Aβ1-40 Assay in 293-hAPP Cells.
# Aβ1-40 production was measured in 293-HEK cells stably expressing wild-type human APP(695) complementary DNA (cDNA) (293-hAPP). Cells were seeded overnight at 3×10^4 cells per well in a 96-well plate. Fresh media [Dulbecco's modified Eagle's medium (DMEM)+10% fetal bovine serum (FBS)] containing various inhibitors were incubated with the 293-hAPP cells for 24 h. The cellular medium was harvested and assayed for the presence of Aβ1-40 with an Aβ1-40 HTRF assay (CisBio) according to the manufacturer's instructions. Aβ1-40 values were normalized for cell viability, as determined with the CellTiter-Glo Luminescent Cell Viability Assay (Promega). Experiments were performed at least 3 times, and each point in each experiment was repeated in duplicate. Data was plotted with a 4-parameter nonlinear regression curve-fitting program (KaleidaGraph, Synergy Software).
# BACE1 [5] = target: T2, BACE1 (Homo sapiens, UniProt P56817); experiment: Biotinylated BACE020 competition binding ELISA; design: extracellular domain (ECD) (residues 22-457) and a C-terminal His8 tag; made in house; host or cells: Chinese hamster ovary cells (transient); details: concentration dependent addition of competitor
# Procedure: The coated wells were washed with buffer (PBS, 0.05% Polysorbate 20) and blocked with assay buffer (PBS, pH 7.4, 0.5% BSA, 0.05% Tween 20, 15 ppm Proclin) for 1 h at room temperature with gentle shaking.
# Target sequence in this assay (P56817 22-457): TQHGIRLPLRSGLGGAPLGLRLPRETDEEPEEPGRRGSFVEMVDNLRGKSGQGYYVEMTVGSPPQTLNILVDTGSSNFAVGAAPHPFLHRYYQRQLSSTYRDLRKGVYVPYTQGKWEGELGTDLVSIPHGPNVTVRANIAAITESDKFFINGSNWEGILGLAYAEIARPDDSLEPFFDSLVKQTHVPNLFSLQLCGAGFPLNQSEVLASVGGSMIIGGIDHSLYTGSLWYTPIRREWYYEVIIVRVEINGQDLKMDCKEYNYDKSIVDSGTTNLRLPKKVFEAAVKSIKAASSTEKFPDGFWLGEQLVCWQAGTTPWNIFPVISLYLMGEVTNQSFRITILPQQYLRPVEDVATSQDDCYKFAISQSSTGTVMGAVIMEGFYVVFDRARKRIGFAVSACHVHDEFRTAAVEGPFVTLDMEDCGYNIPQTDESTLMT
# BACE1 [6] = target: T2, BACE1; experiment: Phage ELISA of peptide-displaying phage on plate-immobilized BACE1; format: binding; details: 70 nM BMS1 peptide
# Procedure: BMS1, BMS2 and BMS4 are the same as peptide identifiers 1, 2 and 4, respectively as previously described (Kornacker, M. G. et al. (2005) Biochemistry 44: 11567-73). […] FIG. 1C depicts the competition of peptide-displaying phage bound to BACE1 with synthesized peptide BMS1. The bars represent phage ELISA signal in the absence (gray) or presence (black) of 70 nM BMS1 peptide. The phage peptide ID is as denoted in FIG. 1A.
# BACE017 is a BACE1 binding peptide ligand obtained from the solution panning of BACE1 against the naïve peptide library in the presence of 100 μM BACE010. BACE018-BACE021 are peptide sequences for BACE1 binding peptides derived from the affinity maturation of BACE017. The phage spot ELISA data is listed to indicate the relative binding affinity for individual clones. The column labeled with ELISA is the phage-binding signal to BACE1, s/n ratio represents the signal/noise ratio, in which “signal” is the data as shown in column “ELISA” and noise is the phage-binding signal to BSA as background nonspecific binding. […]
# After 4 rounds of binding selection, individual phage clones were analyzed in a high-throughput spot phage ELISA (Sidhu, S. S. et al. (2000) Methods Enzymol 328: 333-63) using plate-immobilized BACE1 as the target. The binding signal of the same phage particle to BSA was detected as non-specific binding noise. […]
# Target sequence in this assay (P56817 46-501): as the sequence (P56817 46-501) above
compound,measurement,setting,value
CC[C@H](C)[C@H](NC(=O)[C@H](Cc1c[nH]cn1)NC(=O)[C@H](CCC(=O)O)NC(=O)[C@H](CCC(=O)O)NC(=O)[C@H](CC(N)=O)NC(C)=O)C(=O)N[C@@H](Cc1ccc(O)cc1)C(=O)N[C@H]1CSSC[C@@H](C(=O)NCC(N)=O)NC(=O)CNC(=O)[C@H](CC(C)C)NC(=O)CNC(=O)[C@H](CC(C)C)NC(=O)[C@H](CC(C)C)NC(=O)[C@H](CCCNC(=N)N)NC1=O [BACE017] (Ac-NEEHIYCRLLGLGCG-NH2; disulfide 7-14),IC50,human BACE1 (rhBACE1) [1],> 10000 nM
same,IC50,human BACE1 (rhBACE1) [2],> 10000 nM
same,IC50,human BACE1 (rhBACE1) [3],438 nM
CSCC[C@@H]1NC(=O)[C@H](CC(C)C)NC(=O)[C@H](CCCNC(=N)N)NC(=O)[C@@H](NC(=O)[C@H](Cc2ccc(O)cc2)NC(=O)[C@@H]2CCCN2C(=O)[C@H](CO)NC(=O)[C@H](CC(C)C)NC(=O)[C@H](CCC(=O)O)NC(=O)[C@H](CC(N)=O)NC(C)=O)CSSC[C@@H](C(=O)N[C@@H](CC(=O)O)C(N)=O)NC(=O)CNC(=O)[C@H](CC(C)C)NC(=O)CNC1=O [BACE019] (Ac-NELSPYCRLMGLGCD-NH2; disulfide 7-14),IC50,human BACE1 (rhBACE1) [2],10 ± 3 nM
same,IC50,human BACE1 (rhBACE1) [3],10 nM
CC[C@H](C)[C@@H]1NC(=O)CNC(=O)[C@H](CC(C)C)NC(=O)[C@H](CC(C)C)NC(=O)[C@H](CCCNC(=N)N)NC(=O)[C@@H](NC(=O)[C@H](Cc2ccc(O)cc2)NC(=O)[C@H](CCSC)NC(=O)[C@H](CO)NC(=O)[C@H](CCC(=O)O)NC(=O)[C@H](CCC(=O)O)NC(=O)[C@H](CC(N)=O)NC(C)=O)CSSC[C@@H](C(=O)NCC(N)=O)NC(=O)CNC1=O [BACE020] (Ac-NEESMYCRLLGIGCG-NH2; disulfide 7-14),IC50,human BACE1 (rhBACE1) [1],11 ± 3 nM
same,IC50,human BACE1 (rhBACE1) [2],11 ± 2 nM
same,Inhibition of Aβ production in cells (in words),[4],potent inhibitor
same,Effect on BACE1 activity in HTRF enzyme activity assay (in words),human BACE1 (rhBACE1) [3],best inhibitory activity
same,IC50,human BACE1 (rhBACE1) [3],12 nM
Ac-NEESMYSRLLGIGSG-NH2 [BACE027],IC50,human BACE1 (rhBACE1) [1],> 10000 nM
same,IC50,human BACE1 (rhBACE1) [2],> 10000 nM
same,Inhibition of Aβ production in cells (in words),[4],no inhibition
"Ac-NLTTYPYFIPLP-NH2 [BMS1, reference compound]",Competition for binding of biotinylated BACE020 to BACE1,BACE1 [5],no competition
same,IC50,human BACE1 (rhBACE1) [2],> 10000 nM
same,Inhibition of Aβ production in cells (in words),[4],no inhibition
Ac-SGPYFIEYMSAV-NH2 [BACE010],Binding of phage-displayed peptide to BACE1 in competition with peptide BMS1,BACE1 [6],competitive
same,IC50,human BACE1 (rhBACE1) [2],> 10000 nM
same,Effect on BACE1 activity in HTRF enzyme activity assay (in words),human BACE1 (rhBACE1) [3],very weak inhibitor
BACE011: Ac-SGCLDYPCFVPIS-NH2 (disulfide 3-8 (inferred)),Binding of phage-displayed peptide to BACE1 in competition with peptide BMS1,BACE1 [6],competitive
same,Effect on BACE1 activity in HTRF enzyme activity assay (in words),human BACE1 (rhBACE1) [3],activator
OM99-2 [reference compound],Inhibition of Aβ production in cells (in words),[4],not all enzymatic inhibitors showed cellular activity
